# Experimental data taken from patent EP4603105A1, “PHARMACEUTICAL COMPOSITION CONTAINING CYCLIC COMPOUND HAVING SELECTIVE KRAS INHIBITORY EFFECT AGAINST HRAS AND NRAS” (CHUGAI SEIYAKU KABUSHIKI KAISHA, priority 2022, dated 2024).
# *1 amine or outer side, *2 acyl side, *3 side chain or, on linkers, in order; H or OH if unused. Where a SMILES comes first, the peptide text is derived from it. Bridges are numbered along the chain shown (N, C = ends). [ ]: non-standard residue; d: D form. The star is where a group is joined. hPhe(3-Cl-4-CF3) = N[C@@H](CCc1ccc(C(F)(F)F)c(Cl)c1)C(=O)O; X51 = CCCN([C@@H](Cc1ccc(OC(F)(F)F)cc1)C(=O)[*:2])[*:1]; NPrPhe(4-CF3) = CCCN[C@@H](Cc1ccc(C(F)(F)F)cc1)C(=O)O; X50 = C=CCN([C@@H](Cc1ccc(C)cc1)C(=O)[*:2])[*:1]; X52 = C#CCN([C@@H](Cc1ccc(C)cc1)C(=O)[*:2])[*:1]; NMeGly(cPent) = CN[C@H](C(=O)O)C1CCCC1; Pro(4S-Me) = C[C@@H]1CN[C@H](C(=O)O)C1; Aze(3S-Me) = C[C@H]1CN[C@@H]1C(=O)O; cisHyp = O=C(O)[C@@H]1C[C@H](O)CN1; Hyp = O=C(O)[C@@H]1C[C@@H](O)CN1; NMeD = CN[C@@H](CC(=O)O)C(=O)O; NMeL = CN[C@@H](CC(C)C)C(=O)O; Morpholide = C1CN(*)CCO1; NMeA = CN[C@@H](C)C(=O)O; Ac5c = NC1(C(=O)O)CCCC1; Aze = O=C(O)[C@@H]1CCN1; Ethyl(2,2-F2) = FC(F)C*; Ac4c = NC1(C(=O)O)CCC1; Ac3c = NC1(C(=O)O)CC1; NEtG = CCNCC(=O)O; Sar = CNCC(=O)O
# Tested on: human lung cancer strain NCI-H441
# Type: cell-based
# Description: A test compound was dispensed into a U-bottom 384-well plate as 40 nL serially diluted dimethyl sulfoxide solutions using a liquid handler Echo (LABCYTE). […] This cell suspension was dispensed in an amount of 40 µL per well into a plate containing the test compound, and cultured at 37°C in a 5% carbon dioxide gas incubator. Four days later, 20 µL of CellTiter-Glo (registered trademark) (Promega) was added to each well and […] was measured. […]
row,SMILES,IC50 [nM]
1,C=CCN1C(=O)[C@@H]2CCN2C(=O)[C@H](C)N(C)C(=O)[C@H]([C@@H](C)CC)NC(=O)[C@H](CC(C)C)N(C)C(=O)C[C@@H](C(=O)N2CCOCC2)N(C)C(=O)[C@H](C2CCCC2)N(C)C(=O)C2(CCCC2)NC(=O)[C@@H]2CCCN2C(=O)[C@H](CCc2ccc(C(F)(F)F)c(Cl)c2)NC(=O)CN(C)C(=O)[C@@H]1Cc1ccc(C)cc1 [PP0088] ([NMeL]I[NMeA][Aze][X50][Sar][hPhe(3-Cl-4-CF3)]P[Ac5c][NMeGly(cPent)][NMeD]-Morpholide; lactam N-11),4.1
2,CCO[C@@H]1C[C@H]2C(=O)NC3(CCC3)C(=O)N(C)[C@@H](C(CC)CC)C(=O)N(C)[C@H](C)CC(=O)N(C)[C@@H](CC3CCCC3)C(=O)N[C@@H]([C@@H](C)CC)C(=O)N(C)CC(=O)N(C)[C@H]3C/C=C\CCN(C3=O)[C@@H](Cc3ccc(F)cc3)C(=O)N(C)CC(=O)N[C@@H](CCc3cc(F)c(C(F)(F)F)c(F)c3)C(=O)N2C1 [PP1523],320
3,CCCN1C(=O)CN(C)C(=O)CN(C)C(=O)[C@H]([C@@H](C)CC)NC(=O)[C@H](CC(C)C)N(C)C(=O)C[C@@H](C(=O)N2CCOCC2)N(C)C(=O)[C@H](C2CCCC2)N(C)C(=O)C2(CCCC2)NC(=O)[C@@H]2CCCN2C(=O)[C@H](CCc2ccc(C(F)(F)F)c(Cl)c2)NC(=O)CN(C)C(=O)[C@@H]1Cc1ccc(OC(F)(F)F)cc1 [PP0137] ([NMeL]I[Sar][Sar][X51][Sar][hPhe(3-Cl-4-CF3)]P[Ac5c][NMeGly(cPent)][NMeD]-Morpholide; lactam N-11),13.4
4,CCCN1C(=O)[C@@H]2CCN2C(=O)[C@H](C)N(C)C(=O)[C@H]([C@@H](C)CC)NC(=O)[C@H](CC(C)C)N(C)C(=O)C[C@@H](C(=O)N2CCOCC2)N(C)C(=O)[C@H](C2CCCC2)N(C)C(=O)C2(CCCC2)NC(=O)[C@@H]2C[C@H](C)CN2C(=O)[C@H](CCc2ccc(C(F)(F)F)c(Cl)c2)NC(=O)CN(C)C(=O)[C@@H]1Cc1ccc(C(F)(F)F)cc1 [PP0455] ([NMeL]I[NMeA][Aze][NPrPhe(4-CF3)][Sar][hPhe(3-Cl-4-CF3)][Pro(4S-Me)][Ac5c][NMeGly(cPent)][NMeD]-Morpholide; lactam N-11),9.9
5,CCCN1C(=O)[C@@H]2CCN2C(=O)[C@H](C)N(C)C(=O)[C@H]([C@@H](C)CC)NC(=O)[C@H](CC(C)C)N(C)C(=O)C[C@@H](C(=O)N(C)C)N(C)C(=O)[C@H](C2CCCC2)N(C)C(=O)C2(CCC2)NC(=O)[C@@H]2C[C@@H](OCC)CN2C(=O)[C@H](CCc2ccc(C(F)(F)F)c(Cl)c2)NC(=O)CN(C)C(=O)[C@@H]1Cc1ccc(C(F)(F)F)cc1 [PP0439] ([NMeL]I[NMeA][Aze][NPrPhe(4-CF3)][Sar][hPhe(3-Cl-4-CF3)][Hyp](Et)[Ac4c][NMeGly(cPent)][NMeD]-NMe2; lactam N-11),0.7
6,CCCN1C(=O)CN(C)C(=O)CN(CC)C(=O)[C@H]([C@@H](C)CC)NC(=O)[C@H](CC(C)C)N(C)C(=O)C[C@@H](C(=O)N2CCOCC2)N(C)C(=O)[C@H](C2CCCC2)N(C)C(=O)C2(CCCC2)NC(=O)[C@@H]2C[C@H](C)CN2C(=O)[C@H](CCc2ccc(C(F)(F)F)c(Cl)c2)NC(=O)CN(C)C(=O)[C@@H]1Cc1ccc(C(F)(F)F)cc1 [PP0451] ([NMeL]I[NEtG][Sar][NPrPhe(4-CF3)][Sar][hPhe(3-Cl-4-CF3)][Pro(4S-Me)][Ac5c][NMeGly(cPent)][NMeD]-Morpholide; lactam N-11),11.2
7,"CCCN1C(=O)CN(C)C(=O)CN(C)C(=O)[C@H]([C@@H](C)CC)NC(=O)[C@H](CC(C)C)N(C)C(=O)C[C@@H](C(=O)N2CCOCC2)N(C)C(=O)[C@H](C2CCCC2)N(C)C(=O)C2(CCCC2)NC(=O)[C@@H]2C[C@H](OCC(F)F)CN2C(=O)[C@H](CCc2ccc(C(F)(F)F)c(Cl)c2)NC(=O)CN(C)C(=O)[C@@H]1Cc1ccc(C(F)(F)F)cc1 [PP0245] ([NMeL]I[Sar][Sar][NPrPhe(4-CF3)][Sar][hPhe(3-Cl-4-CF3)][cisHyp](Ethyl(2,2-F2))[Ac5c][NMeGly(cPent)][NMeD]-Morpholide; lactam N-11)",22.9
8,C#CCN1C(=O)[C@@H]2CCN2C(=O)[C@H](C)N(C)C(=O)[C@H]([C@@H](C)CC)NC(=O)[C@H](CC(C)C)N(C)C(=O)C[C@@H](C(=O)N2CCOCC2)N(C)C(=O)[C@H](C2CCCC2)N(C)C(=O)C2(CCCC2)NC(=O)[C@@H]2CCCN2C(=O)[C@H](CCc2ccc(C(F)(F)F)c(Cl)c2)NC(=O)CN(C)C(=O)[C@@H]1Cc1ccc(C)cc1 [PP0090] ([NMeL]I[NMeA][Aze][X52][Sar][hPhe(3-Cl-4-CF3)]P[Ac5c][NMeGly(cPent)][NMeD]-Morpholide; lactam N-11),1.9
9,CCC[C@H]1C(=O)N[C@@H]([C@@H](C)CC)C(=O)N(C)CC(=O)N(C)[C@H]2C/C=C\CCN(C2=O)[C@@H](Cc2ccc(C)cc2)C(=O)N(C)CC(=O)N[C@@H](CCc2ccc(C(F)(F)F)c(Cl)c2)C(=O)N2C[C@H](C)C[C@H]2C(=O)NC2(CCC2)C(=O)N(C)[C@@H](C2CCCC2)C(=O)N(C)[C@H](C(=O)N(C)CC)CC(=O)N1C [PP1850],49.1
10,CCCN1C(=O)[C@@H]2CCN2C(=O)[C@@H]2[C@@H](C)CN2C(=O)[C@H]([C@@H](C)CC)NC(=O)[C@H](CC(C)C)N(C)C(=O)C[C@@H](C(=O)N2CCOCC2)N(C)C(=O)[C@H](C2CCCC2)N(C)C(=O)C2(CCCC2)NC(=O)[C@@H]2CCCN2C(=O)[C@H](CCc2ccc(C(F)(F)F)c(Cl)c2)NC(=O)CN(C)C(=O)[C@@H]1Cc1ccc(C(F)(F)F)cc1 [PP0279] ([NMeL]I[Aze(3S-Me)][Aze][NPrPhe(4-CF3)][Sar][hPhe(3-Cl-4-CF3)]P[Ac5c][NMeGly(cPent)][NMeD]-Morpholide; lactam N-11),15
11,CCCN1C(=O)[C@@H]2CCN2C(=O)CN(C)C(=O)[C@H]([C@@H](C)CC)NC(=O)[C@H](CC(C)C)N(C)C(=O)C[C@@H](C(=O)N(C)C)NC(=O)[C@H](C2CCCC2)N(C)C(=O)C2(CCCC2)NC(=O)[C@@H]2CCCN2C(=O)[C@H](CCc2ccc(C(F)(F)F)c(Cl)c2)NC(=O)CN(C)C(=O)[C@@H]1Cc1ccc(C(F)(F)F)cc1 [PP0385] ([NMeL]I[Sar][Aze][NPrPhe(4-CF3)][Sar][hPhe(3-Cl-4-CF3)]P[Ac5c][NMeGly(cPent)]D-NMe2; lactam N-11),15.2
12,CCCN1C(=O)[C@@H]2CCN2C(=O)C2(CC2)NC(=O)[C@H]([C@@H](C)CC)NC(=O)[C@H](CC(C)C)N(C)C(=O)C[C@@H](C(=O)N2CCOCC2)N(C)C(=O)[C@H](C2CCCC2)N(C)C(=O)C2(CCCC2)NC(=O)[C@@H]2CCCN2C(=O)[C@H](CCc2ccc(C(F)(F)F)c(Cl)c2)NC(=O)CN(C)C(=O)[C@@H]1Cc1ccc(C(F)(F)F)cc1 [PP0276] ([NMeL]I[Ac3c][Aze][NPrPhe(4-CF3)][Sar][hPhe(3-Cl-4-CF3)]P[Ac5c][NMeGly(cPent)][NMeD]-Morpholide; lactam N-11),752
13,CCC[C@H]1C(=O)N[C@@H]([C@@H](C)CC)C(=O)N(C)CC(=O)N(C)[C@H]2C/C=C\CCN(C2=O)[C@@H](Cc2ccc(C)cc2)C(=O)N(C)CC(=O)N[C@@H](CCc2ccc(C(F)(F)F)c(Cl)c2)C(=O)N2C[C@@H](C)C[C@H]2C(=O)NC2(CCC2)C(=O)N(C)[C@@H](C2CCCC2)C(=O)N(C)[C@H](C(=O)N(C)CC)CC(=O)N1C [PP1848],22.5

# Further lines, results first:
row,IC50 [nM],SMILES
1,4.5,CCO[C@@H]1C[C@H]2C(=O)NC3(CCC3)C(=O)N(C)[C@@H](C3CCCC3)C(=O)N(C)[C@H](C(=O)N(C)CC)CC(=O)N(C)[C@@H](C(C)C)C(=O)N[C@@H]([C@@H](C)CC)C(=O)N(C)CC(=O)N(C)[C@H]3C/C=C\CCN(C3=O)[C@@H](Cc3ccc(C(F)(F)F)cc3)C(=O)N(C)CC(=O)N[C@@H](CCc3ccc(C(F)(F)F)c(OC)c3)C(=O)N2C1 [PP2019]
2,15.7,CCCN(C)C(=O)[C@@H]1CC(=O)N(C)[C@@H](COCC)C(=O)N[C@@H]([C@@H](C)CC)C(=O)N(C)CC(=O)N(C)[C@H]2C/C=C\CCN(C2=O)[C@@H](Cc2ccc(C(F)(F)F)cc2)C(=O)N(C)CC(=O)N[C@@H](CCc2cc(F)c(C(F)(F)F)c(F)c2)C(=O)N2C[C@@H](C)C[C@H]2C(=O)NC2(CCC2)C(=O)N(C)[C@@H](C2CCCC2)C(=O)N1C [PP2002]
3,18.4,CC[C@H](C)[C@@H]1NC(=O)[C@H](CC(F)F)N(C)C(=O)C[C@@H](C(=O)N(C)C)N(C)C(=O)[C@H](C2CCCC2)N(C)C(=O)C2(CC(C)(C)C2)NC(=O)[C@@H]2C[C@@H](C)CN2C(=O)[C@H](CCc2ccc(C(F)(F)F)c(OC)c2)NC(=O)CN(C)C(=O)[C@H](Cc2ccc(C)cc2)N2CC/C=C\C[C@@H](C2=O)N(C)C(=O)CN(C)C1=O [PP1877]
4,11.8,CCCN(C)C(=O)[C@@H]1CC(=O)N(C)[C@@H](CCOC)C(=O)N[C@@H]([C@@H](C)CC)C(=O)N(C)CC(=O)N(C)[C@H]2C/C=C\CCN(C2=O)[C@@H](Cc2ccc(C(F)(F)F)cc2)C(=O)N(C)CC(=O)N[C@@H](CCc2cc(F)c(C(F)(F)F)c(F)c2)C(=O)N2C[C@H](OCC)C[C@H]2C(=O)NC2(CC(C)(C)C2)C(=O)N(C)[C@@H](C2CCCC2)C(=O)N1C [PP2033]
5,7.4,C#CCN1CC(=O)N(C)[C@H]2C/C=C\CCN(C2=O)[C@@H](Cc2ccc(C)cc2)C(=O)N(C)CC(=O)N[C@@H](CCc2ccc(C(F)(F)F)c(OC)c2)C(=O)N2C[C@H](OCC)C[C@H]2C(=O)NC2(CC(C)(C)C2)C(=O)N(C)[C@@H](C2CCCC2)C(=O)N(C)[C@H](C(=O)N(C)C)CC(=O)N(C)[C@@H](CC(C)C)C(=O)N[C@@H]([C@@H](C)CC)C1=O [PP2060]
6,30.4,CC[C@H](C)[C@@H]1NC(=O)[C@H](CC)N(C)C(=O)C[C@@H](C(=O)N(C)CC)N(C)C(=O)[C@H](C2CCCC2)N(C)C(=O)C2(CCC2)NC(=O)[C@@H]2C[C@H](C)CN2C(=O)[C@H](CCc2ccc(C(F)(F)F)c(OC)c2)NC(=O)CN(C)C(=O)[C@H](Cc2ccc(C)cc2)N2CC/C=C\C[C@@H](C2=O)N(C)C(=O)CN(C)C1=O [PP1853]
7,24.7,CC[C@H](C)[C@@H]1NC(=O)[C@H](CC2CC2)N(C)C(=O)C[C@@H](C(=O)N(C)CC)N(C)C(=O)[C@H](C2CCCC2)N(C)C(=O)C2(CCC2)NC(=O)[C@@H]2C[C@@H](C)CN2C(=O)[C@H](CCc2ccc(C(F)(F)F)c(OC)c2)NC(=O)CN(C)C(=O)[C@H](Cc2ccc(C)cc2)N2CC/C=C\C[C@@H](C2=O)N(C)C(=O)CN(C)C1=O [PP1900]
